# Test results: the supplement of paper PMC10733146
# Tests used:
# Test in all cases: viability relative to DMSO control (fraction); higher = less drug effect (more viable cells)
# Details in all cases: 48 h
# [1] = tested on: primary ALL patient cells (S088)
# Procedure, shortened: (§1)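 Viability was measured as CellTiter-Glo luminescence relative to the median of 16 inner DMSO wells. Primary mononuclear tumour cells, fresh or cryopreserved, were Ficoll-isolated from blood or bone marrow or taken from processed lymph node. They were seeded at 4 × 10^4 cells per well into 384-well plates holding pre-plated compounds at five concentrations, one well each, and kept in RPMI-1640 with penicillin/streptomycin, L-glutamine and human serum at 37 °C and 5% CO2 for 48 h.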
# [2] = tested on: primary AML patient cells (S072)
# Procedure, shortened: as §1
# [3] = tested on: primary AML patient cells (S056)
# Procedure, shortened: as §1
# [4] = tested on: primary CLL patient cells (S043)
# Procedure, shortened: as §1
# [5] = tested on: primary AML patient cells (S071)
# Procedure, shortened: as §1
# [6] = tested on: primary AML patient cells (S006)
# Procedure, shortened: as §1
# [7] = tested on: primary AML patient cells (S060)
# Procedure, shortened: as §1
# [8] = tested on: primary AML patient cells (S007)
# Procedure, shortened: as §1
# [9] = tested on: primary AML patient cells (S055)
# Procedure, shortened: as §1
# [10] = tested on: primary AML patient cells (S079)
# Procedure, shortened: as §1
# [11] = tested on: primary ALL patient cells (S048)
# Procedure, shortened: as §1
# [12] = tested on: primary AML patient cells (S089)
# Procedure, shortened: as §1
# [13] = tested on: primary DLBCL patient cells (S049)
# Procedure, shortened: as §1
# [14] = tested on: primary CLL patient cells (S031)
# Procedure, shortened: as §1
# [15] = tested on: primary DLBCL patient cells (S082)
# Procedure, shortened: as §1
# [16] = tested on: primary T-NHL patient cells (S058)
# Procedure, shortened: as §1
# [17] = tested on: primary MCL patient cells (S063)
# Procedure, shortened: as §1
# [18] = tested on: primary DLBCL patient cells (S076)
# Procedure, shortened: as §1
compound,measurement,setting,value
O=C(Nc1nc2ccccc2n1CCN1CCOCC1)c1cccc([N+](=O)[O-])c1 [IRAK-1/4 INHIBITOR I],viability,[1]; 0.016 µM,0.747
same,viability,[1]; 0.08 µM,0.862
same,viability,[1]; 0.4 µM,0.856
same,viability,[1]; 2 µM,0.826
same,viability,[1]; 10 µM,0.941
same,viability,[2]; 0.016 µM,0.921
same,viability,[2]; 0.08 µM,0.985
same,viability,[2]; 0.4 µM,0.909
same,viability,[2]; 2 µM,0.869
same,viability,[2]; 10 µM,0.916
same,viability,[3]; 0.016 µM,0.693
same,viability,[3]; 0.08 µM,1.13
same,viability,[3]; 0.4 µM,0.585
same,viability,[3]; 2 µM,0.817
same,viability,[3]; 10 µM,0.783
same,viability,[4]; 0.016 µM,0.825
same,viability,[4]; 0.08 µM,0.885
same,viability,[4]; 0.4 µM,0.838
same,viability,[4]; 2 µM,0.845
same,viability,[4]; 10 µM,0.861
same,viability,[5]; 0.016 µM,0.925
same,viability,[5]; 0.08 µM,0.918
same,viability,[5]; 0.4 µM,0.815
same,viability,[5]; 2 µM,0.783
same,viability,[5]; 10 µM,0.636
same,viability,[6]; 0.016 µM,0.952
same,viability,[6]; 0.08 µM,0.975
same,viability,[6]; 0.4 µM,0.887
same,viability,[6]; 2 µM,0.751
same,viability,[6]; 10 µM,0.691
same,viability,[7]; 0.016 µM,0.973
same,viability,[7]; 0.08 µM,1
same,viability,[7]; 0.4 µM,0.974
same,viability,[7]; 2 µM,1
same,viability,[7]; 10 µM,1.02
same,viability,[8]; 0.016 µM,1.01
same,viability,[8]; 0.08 µM,0.989
same,viability,[8]; 0.4 µM,0.788
same,viability,[8]; 2 µM,0.469
same,viability,[8]; 10 µM,0.292
same,viability,[9]; 0.016 µM,0.985
same,viability,[9]; 0.08 µM,0.994
same,viability,[9]; 0.4 µM,1.01
same,viability,[9]; 2 µM,1.02
same,viability,[9]; 10 µM,0.958
same,viability,[10]; 0.016 µM,0.929
same,viability,[10]; 0.08 µM,0.93
same,viability,[10]; 0.4 µM,0.885
same,viability,[10]; 2 µM,0.906
same,viability,[10]; 10 µM,0.949
same,viability,[11]; 0.016 µM,0.726
same,viability,[11]; 0.08 µM,0.836
same,viability,[11]; 0.4 µM,0.811
same,viability,[11]; 2 µM,0.834
same,viability,[11]; 10 µM,0.808
same,viability,[12]; 0.016 µM,0.772
same,viability,[12]; 0.08 µM,0.973
same,viability,[12]; 0.4 µM,0.849
same,viability,[12]; 2 µM,1
same,viability,[12]; 10 µM,0.872
same,viability,[13]; 0.016 µM,0.936
same,viability,[13]; 0.08 µM,0.955
same,viability,[13]; 0.4 µM,0.834
same,viability,[13]; 2 µM,0.833
same,viability,[13]; 10 µM,0.821
same,viability,[14]; 0.016 µM,0.897
same,viability,[14]; 0.08 µM,0.91
same,viability,[14]; 0.4 µM,0.906
same,viability,[14]; 2 µM,0.861
same,viability,[14]; 10 µM,0.877
same,viability,[15]; 0.016 µM,0.863
same,viability,[15]; 0.08 µM,0.932
same,viability,[15]; 0.4 µM,0.926
same,viability,[15]; 2 µM,1.02
same,viability,[15]; 10 µM,1.07
same,viability,[16]; 0.016 µM,1.05
same,viability,[16]; 0.08 µM,1.25
same,viability,[16]; 0.4 µM,1.02
same,viability,[16]; 2 µM,1.07
same,viability,[16]; 10 µM,1.27
same,viability,[17]; 0.016 µM,0.993
same,viability,[17]; 0.08 µM,0.961
same,viability,[17]; 0.4 µM,1.02
same,viability,[17]; 2 µM,1.03
same,viability,[17]; 10 µM,1.11
same,viability,[18]; 0.016 µM,0.94
same,viability,[18]; 0.08 µM,1.09
same,viability,[18]; 0.4 µM,1.01
same,viability,[18]; 2 µM,1
same,viability,[18]; 10 µM,1.11
